Assays:
Assay type in all cases: in vivo
[1] = test system: Polygonum convolvulus (POLCO); test: Herbicidal pre-emergence action, section C (Table C7); conditions: Fallopia convolvulus, pre-emergence, 504 h; application rate 320 g/ha; visual grading after ca. 3 weeks; read-out: pre-emergence activity against POLCO in %
Source text: (§1) Seeds of mono- and dicotyledonous weed plants and crop plants were sown, in plastic or organic planting pots, in sandy loam and covered with soil. The compounds according to the invention, formulated in the form of wettable powders (WP) or as emulsifiable concentrates (EC), were applied to the surface of the covering soil as aqueous suspension or emulsion, with the addition of 0.5% of an additive, at an application rate of 600 l of water/ha (converted). Following treatment, the pots were placed in a greenhouse and kept under optimum growth conditions for the test plants. The visual grading of the damage to the test plants was carried out after ca. 3 weeks in comparison to untreated controls (herbicidal effect in percent (%): 100% effect=plants have died off, 0% effect=as control plants).

[2] = test system: Zea mays (ZEAMX); test: Pre-emergence effects on crop plants, section D (Table D1); conditions: visual grading after ca. 3 weeks
Summary of the method: (§2)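 Formulated compound (wettable powder or emulsifiable concentrate) was applied pre-emergence to the soil surface at 320 g/ha or lower. Greenhouse-grown plants were rated visually for percent damage after ca. 3 weeks.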

[3] = test system: Brassica napus (BRSNW); test: Pre-emergence effects on crop plants, section D (Table D5); conditions: application rate 80 g/ha; visual grading after ca. 3 weeks
Source text: (§3) Seeds of mono- and dicotyledonous weed plants and crop plants were sown, in plastic or organic planting pots, in sandy loam and covered with soil. The compounds according to the invention, formulated in the form of wettable powders (WP) or as emulsifiable concentrates (EC), were applied to the surface of the covering soil as aqueous suspension or emulsion, with the addition of 0.5% of an additive, at an application rate of 600 l of water/ha (converted).
(§4) Following treatment, the pots were placed in a greenhouse and kept under optimum growth conditions for the test plants. The visual grading of the damage to the test plants was carried out after ca. 3 weeks in comparison to untreated controls (herbicidal effect in percent (%): 100% effect=plants have died off, 0% effect=as control plants).
(§5) Tables D1 to D5 below show the effects of various compounds of the general formula (I) according to Table 1 on various crop plants and an application rate corresponding to 320 g/ha or below obtained by the experimental procedure mentioned above in Biological Examples, Section C.

[4] = test system: Brassica napus (BRSNW); test: Post-emergence effects on crop plants, section F (Table F5); conditions: application rate 80 g/ha
Source text: (§6) Seeds of mono- and dicotyledonous weed plants and crop plants were sown, in plastic or organic planting pots, in sandy loam, covered with soil and grown in a greenhouse under controlled growth conditions. 2 to 3 weeks after sowing, the test plants were sprayed in the single-leaf stage. The compounds according to the invention, formulated in form of wettable powders (WP) or as emulsifiable concentrates (EC), were sprayed onto the green plant parts as aqueous suspension or emulsion, with the addition of 0.5% of an additive, at an application rate of 600 l of water/ha (converted). The test plants were placed in the greenhouse for ca. 3 weeks under optimum growth conditions, and then the effect of the preparations was assessed visually in comparison with untreated controls (herbicidal effect in percent (%): 100% effect=plants have died off, 0% effect=as control plants). Tables F1 to F4 below show the effects of selected compounds of the general formula (I) according to Table 1 on various crop plants and an application rate corresponding to 320 g/ha or below obtained by the experimental procedure mentioned above.

[5] = test system: Oryza sativa (ORYZA); test: Pre-emergence effects on crop plants, section D (Table D3); conditions: visual grading after ca. 3 weeks
Source text: as §3, §4, §5

[6] = test system: Setaria viridis (SETVI); test: Herbicidal pre-emergence action, section C (Table C8); conditions: application rate 320 g/ha, visual grading after ca. 3 weeks
Source text: as §1

[7] = test system: Triticum aestivum (TRZAS); test: Pre-emergence effects on crop plants, section D (Table D2); conditions: visual grading after ca. 3 weeks
Summary of the method: as §2

[8] = test system: Polygonum convolvulus (POLCO); test: Herbicidal post-emergence action, section E (Table E7); conditions: Fallopia convolvulus, 504 h, application rate 320 g/ha, visual assessment ca. 3 weeks after spraying, read-out: post-emergence activity against POLCO in %
Source text: as §6, with “plants).” for “plants). Tables F1 to F4 below show the effects of selected compounds of the general formula (I) according to Table 1 on various crop plants and an application rate corresponding to 320 g/ha or below obtained by the experimental procedure mentioned above.”

[9] = test system: Alopecurus myosuroides (ALOMY); test: Herbicidal post-emergence action, section E (Table E2); conditions: Alopecurus myosuroides, post-emergence, 504 h; application rate 320 g/ha; assessed visually after ca. 3 weeks; read-out: post-emergence activity against ALOMY in %
Source text: as §6, with “plants).” for “plants). Tables F1 to F4 below show the effects of selected compounds of the general formula (I) according to Table 1 on various crop plants and an application rate corresponding to 320 g/ha or below obtained by the experimental procedure mentioned above.”

[10] = test system: Lolium rigidum (LOLRI); test: Herbicidal pre-emergence action, section C (Table C5); conditions: Lolium rigidum, pre-emergence, 504 h; application rate 320 g/ha; visual grading after ca. 3 weeks; read-out: pre-emergence activity against LOLRI in %
Source text: as §1

[11] = test system: Zea mays (ZEAMX); test: Post-emergence effects on crop plants, section F (Table F1); conditions: application rate 320 g/ha
Summary of the method: (§7)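 Post-emergence greenhouse test: crops grown 2 to 3 weeks in sandy loam, sprayed at 320 g/ha or less in 600 l water/ha with 0.5% additive. Injury rated visually as percent relative to controls roughly three weeks later.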

[12] = test system: Glycine max (GLXMA); test: Pre-emergence effects on crop plants, section D (Table D4); conditions: application rate 320 g/ha; visual grading after ca. 3 weeks
Summary of the method: as §2

[13] = test system: Veronica persica (VERPE); test: Herbicidal post-emergence action, section E (Table E9); conditions: Veronica persica, 504 h, application rate 320 g/ha, visual assessment ca. 3 weeks after spraying, read-out: post-emergence activity against VERPE in %
Source text: as §6, with “plants).” for “plants). Tables F1 to F4 below show the effects of selected compounds of the general formula (I) according to Table 1 on various crop plants and an application rate corresponding to 320 g/ha or below obtained by the experimental procedure mentioned above.”

[14] = test system: Oryza sativa (ORYZA); test: Post-emergence effects on crop plants, section F (Table F3)
Source text: as §6

[15] = test system: Triticum aestivum (TRZAS); test: Post-emergence effects on crop plants, section F (Table F2); conditions: application rate 320 g/ha
Summary of the method: as §7

[16] = test system: Echinochloa crus-galli (ECHCG); test: Herbicidal pre-emergence action, section C (Table C3); conditions: application rate 320 g/ha, visual grading after ca. 3 weeks vs untreated controls
Source text: as §1

[17] = test system: Glycine max (GLXMA); test: Post-emergence effects on crop plants, section F (Table F4)
Summary of the method: as §7

[18] = test system: Alopecurus myosuroides (ALOMY); test: Herbicidal pre-emergence action, section C (Table C2); conditions: Alopecurus myosuroides, pre-emergence, 504 h; application rate 320 g/ha; visual grading after ca. 3 weeks vs untreated controls; read-out: pre-emergence activity against ALOMY in %
Source text: as §1

[19] = test system: Amaranthus retroflexus (AMARE); test: Herbicidal pre-emergence action, section C (Table C11); conditions: application rate 80 g/ha; visual grading after ca. 3 weeks
Source text: as §1

[20] = test system: Poa annua (POAAN); test: Herbicidal pre-emergence action, section A (Table A7); conditions: application rate 320 g/ha; visual grading after ca. 3 weeks vs untreated controls
Summary of the method: (§8)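 Visual scoring at approximately 3 weeks, relative to untreated pots, gave percent effect after compounds in WP or EC form were sprayed onto covering soil of sown seeds (sandy loam) in water with 0.5% additive at 600 l/ha, then kept in greenhouse.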

[21] = test system: Stellaria media (STEME); test: Herbicidal pre-emergence action, section A (Table A9); conditions: application rate 1280 g/ha
Summary of the method: as §8

[22] = test system: Kochia scoparia (KCHSC); test: Herbicidal pre-emergence action, section A (Table A4); conditions: application rate 1280 g/ha; visual grading after ca. 3 weeks vs untreated controls
Summary of the method: as §8

[23] = test system: Amaranthus retroflexus (AMARE); test: Herbicidal pre-emergence action, section A (Table A11); conditions: application rate 1280 g/ha
Summary of the method: as §8

[24] = test system: Kochia scoparia (KCHSC); test: Herbicidal post-emergence action, section B (Table B4); conditions: application rate 1280 g/ha; visual rating about 3 weeks after treatment vs untreated controls
Summary of the method: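 Scores are visual % activity relative to untreated plants (0% = like control, 100% = dead), taken about 3 weeks after spraying. Compounds, as WP or EC in water with 0.5% additive at 600 L/ha, went onto one-leaf-stage weeds grown from seed in sandy loam under greenhouse conditions.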

[25] = test system: Digitaria sanguinalis (DIGSA); test: Herbicidal pre-emergence action, section C (Table C12); conditions: application rate 320 g/ha; visual grading after ca. 3 weeks
Source text: as §1

[26] = test system: Setaria viridis (SETVI); test: Herbicidal pre-emergence action, section A (Table A8); conditions: application rate 320 g/ha
Summary of the method: as §8

[27] = test system: Digitaria sanguinalis (DIGSA); test: Herbicidal pre-emergence action, section A (Table A12); conditions: application rate 1280 g/ha
Summary of the method: as §8

[28] = test system: Lolium rigidum (LOLRI); test: Herbicidal pre-emergence action, section A (Table A5); conditions: application rate 1280 g/ha; visual grading after ca. 3 weeks vs untreated controls
Summary of the method: as §8

Cc1cc2c(nc1-c1ccccc1F)N(C(=O)C1CC1)CS2 [Example I-018, cyclopropyl[5-(2-fluorophenyl)-6-methyl[1,3]thiazolo[4,5-b]pyridin-3(2H)-yl]methanone]
pest or weed control at 320 g/ha [1]: 90% | pre-emergence activity against ZEAMX in % (crop plant damage) ([2]; application rate 80 g/ha): 20% | pre-emergence activity against BRSNW in % (crop plant damage) [3]: 10% | crop plant damage (phytotoxicity) in % at 80 g/ha ([4]; Brassica napus, 504 h, read-out: post-emergence activity against BRSNW in %): 10% | pre-emergence activity against ORYZA in % (crop plant damage) ([5]; application rate 80 g/ha): 10% | pest or weed control at 320 g/ha ([6]; Setaria viridis, pre-emergence, 504 h, read-out: pre-emergence activity against SETVI in %): 100% | pre-emergence activity against TRZAS in % (crop plant damage) ([7]; application rate 80 g/ha): 10% | pest or weed control at 320 g/ha [8]: 80% | pest or weed control at 320 g/ha [9]: 90% | pest or weed control at 320 g/ha [10]: 100% | percent crop plant damage (phytotoxicity) on Zea mays, post-emergence at 320 g/ha ([11]; Zea mays, 504 h, read-out: post-emergence activity against ZEAMX in %): 20% | pre-emergence activity against GLXMA in % (crop plant damage) [12]: 10% | pest or weed control at 320 g/ha [13]: 90% | percent crop plant damage at 80 g/ha ([14]; Oryza sativa, 504 h, application rate 80 g/ha, read-out: post-emergence activity against ORYZA in %): 0% | percent crop plant damage (wheat, post-emergence) at 320 g/ha ([15]; Triticum aestivum, 504 h, read-out: post-emergence activity against TRZAS in %): 10% | pest or weed control at 320 g/ha ([16]; Echinochloa crus-galli, pre-emergence, 504 h, read-out: pre-emergence activity against ECHCG in %): 100% | percent crop plant damage at 320 g/ha ([17]; Glycine max, 504 h, application rate 320 g/ha, read-out: post-emergence activity against GLXMA in %): 0% | pest or weed control at 320 g/ha [18]: 100%

COc1ccccc1-c1nc2c(cc1Br)SCN2B(N)N [Example I-087]
pre-emergence activity against AMARE in % [19]: 90% | pre-emergence activity against POAAN in % [20]: 100% | pre-emergence activity against ZEAMX in % (crop plant damage) ([2]; application rate 320 g/ha): 10% | pre-emergence activity against BRSNW in % (crop plant damage) [3]: 20% | post-emergence activity against BRSNW in % ([4]; crop plant damage): 0% | pre-emergence activity against ORYZA in % (crop plant damage) ([5]; application rate 320 g/ha): 20% | pre-emergence activity against STEME in % [21]: 90% | pre-emergence activity against SETVI in % [6]: 100% | pre-emergence activity against TRZAS in % (crop plant damage) ([7]; application rate 320 g/ha): 10% | pre-emergence activity against KCHSC in % [22]: 90% | pre-emergence activity against AMARE in % [23]: 90% | post-emergence activity against KCHSC in % [24]: 90% | pre-emergence activity against DIGSA in % [25]: 90% | post-emergence activity against ZEAMX in % ([11]; crop plant damage): 0% | pre-emergence activity against GLXMA in % (crop plant damage) [12]: 20% | pre-emergence activity against SETVI in % [26]: 100% | post-emergence activity against ORYZA in % ([14]; crop plant damage, application rate 320 g/ha): 0% | pre-emergence activity against DIGSA in % [27]: 100% | pre-emergence activity against LOLRI in % [28]: 100% | post-emergence activity against TRZAS in % ([15]; crop plant damage): 0% | pre-emergence activity against ECHCG in % [16]: 90% | post-emergence activity against GLXMA in % ([17]; crop plant damage, application rate 80 g/ha): 0%
